Experimental data: the supplement of paper PMC3974653
Counter-ions that a name gives are not always drawn.

Legend:
[1] = test system: MTT (mouse pheochromocytoma); assay: efficacy (maximal response) relative to doxorubicin = -100% and DMSO = 0%; higher = less inhibition of viability; settings: (24 or 48 h)
[2] = test system: MTT (mouse pheochromocytoma); assay: IC50 of cell viability (ATP content); AC50 where efficacy is positive; settings: (24 or 48 h)

SMILES	IC50 of cell viability [2]	efficacy [1]
Cc1cc(O)c2c3c4c(cc(O)c13)C(C)(C)C(=O)c1c(O)cc(O)c(c1-4)C2=O [HELIOMYCINUM]	3.35 µM	-46.4%
CC[n+]1c(-c2ccccc2)c2cc(N)ccc2c2ccc(N)cc21.[Br-] [HOMIDIUM BROMIDE]	11.9 µM	-34.1%
COC(=O)C[C@](O)(CCCC(C)(C)O)C(=O)O[C@H]\1[C@H]2C3=CC4=C(OCO4)C=C3CCN5CCC[C@]25\C=C1OC [Homoharringtonine]	0.237 µM	-73.7%
CCC(C(=O)C(C)C(O)C(C)CCc1ccc(C)c(O)c1C(=O)[O-])C1OC(CC)(C2CC[C@@](O)(CC)C(C)O2)CC1C.[Na+] (stereo partly drawn) [LASALOCID SODIUM]	4.22 µM	-40.1%
C[C@]12O[C@H](C[C@]1(O)CO)n1c3ccccc3c3c4c(c5c6ccccc6n2c5c31)CNC4=O [LESTAURTINIB]	2.66 µM	-83.2%
CN(C)C1=CC=C(C=C1)C(=C2\C=C/C(/C=C2)=[N+](/C)C)\C3=C(O)C(=CC4=CC(=CC=C34)S([O-])(=O)=O)S([O-])(=O)=O [LISSAMINE GREEN B]	6.68 µM	-54.2%
Oc1cccc[c]1[Hg][Cl] [MERCUFENOL CHLORIDE]	2.99 µM	-83.5%
C\N=C1/C=C\C(\C=C1)=C(/C2=CC=C(C=C2)N(C)C)C3=CC=C(C=C3)N(C)C [METHYL VIOLET]	7.5 µM	-70.3%
CO[C@@]12[C@H](COC(N)=O)C\3=C(/N1C[C@H]4N[C@@H]24)C(=O)\C(=C(N)/C3=O)C [MITOMYCIN C]	1.5 µM	-34.6%
CCCCCCCCCCCCCC[n+]1ccc(C)cc1 [MYRISTYL-GAMMA-PICOLINIUM CHLORIDE]	0.531 µM	-39.7%
CCCCCCCCCCCCCCCC[N+](C)(C)CC [Mecetronium ethylsulfate]	11.9 µM	-78.5%
[Hg+2] [Mercuric chloride]	2.37 µM	-90.3%
CCC(C(=O)O)C1OC(C(C)C(O)C(C)C(=O)C(CC)C2OC3(C=CC(O)C4(CCC(C)(C5CCC(O)(CC)C(C)O5)O4)O3)C(C)CC2C)C(C)CC1C (stereo not drawn) [NARASIN]	1.68 µM	-46.7%
COc1cc(-c2ccc(-[n+]3nc(-c4ccccc4)nn3-c3ccc([N+](=O)[O-])cc3)c(OC)c2)ccc1-[n+]1nc(-c2ccccc2)nn1-c1ccc([N+](=O)[O-])cc1 [NITROBLUE TETRAZOLIUM CHLORIDE]	21.1 µM	-107%
Oc1cc[c]([Hg][Cl])cc1 [PARA-CHLOROMERCURIPHENOL]	2.37 µM	-97.8%
CC(=O)[O][Hg][c]1ccccc1 [PHENYLMERCURIC ACETATE]	2.37 µM	-93.4%
[Hg+][c]1ccccc1 [PHENYLMERCURIC BORATE]	2.99 µM	-91.5%
Cc1cc(CC(C)CC(C)(C)C)n(O)c(=O)c1 (stereo not drawn) [PIROCTONE OLAMINE]	15 µM	-49%
COc1ccc(CC(N)C(=O)NC2C(CO)OC(n3cnc4c(N(C)C)ncnc43)C2O)cc1.Cl.Cl (stereo not drawn) [PUROMYCIN HYDROCHLORIDE]	11.9 µM	-63.1%
CC(=O)O[C@H]1C(=O)[C@@]2(C)[C@H]([C@H](OC(=O)c3ccccc3)[C@]3(O)CC(OC(=O)C(O)C(NC(=O)c4ccccc4)c4ccccc4)C(C)=C1C3(C)C)[C@]1(OC(C)=O)CO[C@@H]1C[C@@H]2O (stereo partly drawn) [Paclitaxel]	0.0376 µM	-50.9%
C=C1C(=O)O[C@@H]2[C@@H]1CC/C(C)=C\CC[C@@]1(C)O[C@H]21 [Parthenolide]	8.41 µM	-104%
Cc1ccc2c(c1)c1c3n2CCNC3CCC1 (stereo not drawn) [Pirlindole mesylate]	21.1 µM	-45.7%
Cc1cc(/C=C\c2ccc3cc(N(C)C)ccc3[n+]2C)c(C)n1-c1ccccc1.Cc1cc(/C=C\c2ccc3cc(N(C)C)ccc3[n+]2C)c(C)n1-c1ccccc1.O=C([O-])c1cc2ccccc2c(Cc2c(O)c(C(=O)[O-])cc3ccccc23)c1O [Pyrvinium pamoate]	0.64 µM	-33.3%
C#C[C@]1(O)CC[C@H]2[C@@H]3CCc4cc(OC5CCCC5)ccc4[C@H]3CC[C@@]21C [Quinestrol]	18.8 µM	-61.1%
COC(=O)C12CCC(C)(C)CC1C3C(=O)\C=C4/C(C)(CCC5C(C)(C)C(=O)\C(=C/C45C)C#N)C3(C)CC2 (stereo not drawn) [RTA 402]	6.68 µM	-108%
C=C(C)[C@H]1Cc2c(ccc3c2O[C@@H]2COc4cc(OC)c(OC)cc4[C@@H]2C3=O)O1 [Rotenone]	2.66 µM	-124%
[Na+].CCC(C1CCC(C)C(O1)C(C)C(O)C(C)C(=O)C(CC)C2OC\3(O[C@]4(CC[C@@](C)(O4)C5CC[C@@](O)(CC)C(C)O5)C(O)\C=C3)C(C)CC2C)C([O-])=O (stereo partly drawn) [SALINOMYCIN, SODIUM]	3.35 µM	-47.9%
CNC(=O)c1cc(Oc2ccc(NC(=O)Nc3ccc(Cl)c(C(F)(F)F)c3)cc2)ccn1 [SORAFENIB TOSYLATE]	8.41 µM	-44.4%

Continued, in another order:

IC50 of cell viability [2]	SMILES	efficacy [1]
1.01 µM	COC(=O)Nc1nc2cc(Sc3ccccc3)ccc2[nH]1 [Fenbendazole]	-61.4%
1.88 µM	CN1CC[C@@H]([C@@H](O)C1)C2=C(O)C=C(O)C3=C2O\C(=C/C3=O)C4=C(Cl)C=CC=C4 [Flavopiridol hydrochloride hydrate]	-71.3%
11.9 µM	Cl.CCC1=C2CN3C(=O)\C4=C(/C=C3/C2=NC5=CC=C(OC(=O)N6CCC(CC6)N7CCCCC7)C=C15)[C@@](O)(CC)C(=O)OC4 [IRINOTECAN HYDROCHLORIDE]	-66.8%
0.376 µM	CCCCCCCCCCCC[n+]1ccc2ccccc2c1 [LAURYL ISOQUINOLINIUM BROMIDE]	-31.3%
26.6 µM	CN(CCCN1c2ccccc2CCc2ccccc21)CC(=O)c1ccc(Cl)cc1 [LOFEPRAMINE HYDROCHLORIDE]	-62.9%
8.41 µM	CN(C)C1=CC=C(C=C1)C(C2=CC=CC=C2)=C/3\C=C/C(/C=C3)=[N+](C)C [Malachite Green Oxalate]	-61.3%
0.64 µM	COC(=O)Nc1nc2cc(C(=O)c3ccccc3)ccc2[nH]1 [Mebendazole]	-49.2%
26.6 µM	Cc1cc(O)c2ccccc2c1O [Menadiol]	-94.6%
11.9 µM	COCC(=O)O[C@]1(CCN(C)CCCc2nc3ccccc3[nH]2)CCc2cc(F)ccc2[C@@H]1C(C)C.Cl.Cl [Mibefradil dihydrochloride]	-97.9%
10.1 µM	Oc1ccc(OCc2ccccc2)cc1 [Monobenzone]	-55.4%
10.6 µM	O=C(Nc1ccc([N+](=O)[O-])cc1)Nc1ccc([N+](=O)[O-])cc1 [Nicarbazin]	-44.1%
0.473 µM	O=C(Nc1ccc([N+](=O)[O-])cc1Cl)c1cc(Cl)ccc1O [Niclosamide]	-41.1%
21.1 µM	O=[N+]([O-])c1ccc(O)c2ncccc12 [Nitroxoline]	-85.8%
0.531 µM	COC(=O)Nc1nc2cc(C(=O)c3cccs3)ccc2[nH]1 [Nocodazole]	-60.2%
6.68 µM	C[N+]1(CC2COC(c3ccccc3)(C3CCCCC3)O2)CCCCC1 (stereo not drawn) [OXAPIUM IODIDE]	-60.2%
0.531 µM	CCCOc1ccc2[nH]c(NC(=O)OC)nc2c1 [OXIBENDAZOLE]	-39%
13.3 µM	O=Cc1ccccc1C=O [PHTHARAL]	-54.4%
8.41 µM	Nc1ccc2cc3ccc(N)cc3nc2c1 [PROFLAVINE HEMISULFATE]	-91.5%
0.453 µM	CCCCc1ccc2[nH]c(NC(=O)OC)nc2c1 [Parbendazole]	-45.1%
5.08 µM	NNCCc1ccccc1 [Phenelzine sulfate]	-52.6%
4.53 µM	CC(C)NC(=N)NC(=N)Nc1ccc(Cl)cc1 [Proguanil hydrochloride]	-59%
8.41 µM	CCc1nc(N)nc(N)c1-c1ccc(Cl)cc1 [Pyrimethamine]	-35%
18.8 µM	COc1cc(NCCCC(C)N)c2ncccc2c1 (stereo not drawn) [QUINOCIDUM]	-93.9%
0.299 µM	CCN1/C(=C/C=C/c2ccc3ccccc3[n+]2CC)C=Cc2ccccc21 [Quinaldine blue]	-34.9%
0.422 µM	CC[C@@]1(O)C(=O)OC/C2=C1/C=C/3N(CC4=CC5=C(C=CC=C5[N+]([O-])=O)N=C34)C2=O [RUBITECAN]	-54.5%
21.1 µM	C[C@@H]1CN(CCCn2c3ccccc3c3ccccc32)C[C@H](C)N1 [Rimcazole dihydrochloride]	-89.8%
